Where a SMILES comes first, the peptide text is derived from it. Bridges are numbered along the chain shown (N, C = ends). [ ]: non-standard residue; d: D form. The star is where a group is joined. X2 = O=C(O)c1cc(C(=O)*)ccc1-c1c2ccc(=O)cc-2oc2cc(O)ccc12; PEG12 = NCCOCCOCCOCCOCCOCCOCCOCCOCCOCCOCCOCCOCCC(=O)O; NMeY = CN[C@@H](Cc1ccc(O)cc1)C(=O)O; NMeH = CN[C@@H](Cc1c[nH]cn1)C(=O)O

By Kd is commonly meant the concentration at which binding is half-saturated.

transferrin receptor (hTfR), sequence (P02786 whole entry): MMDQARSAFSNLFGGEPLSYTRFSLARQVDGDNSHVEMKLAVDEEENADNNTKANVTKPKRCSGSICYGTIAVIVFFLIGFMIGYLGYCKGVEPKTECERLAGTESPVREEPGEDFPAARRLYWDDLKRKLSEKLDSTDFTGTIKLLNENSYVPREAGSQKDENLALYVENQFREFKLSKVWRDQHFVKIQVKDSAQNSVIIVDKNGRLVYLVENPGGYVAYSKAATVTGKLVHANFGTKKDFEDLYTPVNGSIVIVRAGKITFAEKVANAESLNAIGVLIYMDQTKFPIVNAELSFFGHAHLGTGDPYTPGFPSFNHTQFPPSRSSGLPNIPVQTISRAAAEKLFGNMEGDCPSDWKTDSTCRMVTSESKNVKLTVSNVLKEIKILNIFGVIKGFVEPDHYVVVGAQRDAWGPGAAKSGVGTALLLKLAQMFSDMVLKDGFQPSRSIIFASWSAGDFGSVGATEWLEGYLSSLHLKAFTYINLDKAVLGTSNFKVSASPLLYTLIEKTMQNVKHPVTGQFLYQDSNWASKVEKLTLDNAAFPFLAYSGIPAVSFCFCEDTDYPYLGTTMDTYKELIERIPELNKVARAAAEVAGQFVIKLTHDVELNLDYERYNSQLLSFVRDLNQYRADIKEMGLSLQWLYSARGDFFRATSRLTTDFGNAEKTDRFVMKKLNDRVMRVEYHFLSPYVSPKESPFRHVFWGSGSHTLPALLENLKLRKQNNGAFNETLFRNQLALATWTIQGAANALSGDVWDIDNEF

This test has as its target transferrin receptor (hTfR) (Homo sapiens, UniProt P02786). Description: Intermolecular interaction evaluation test between transferrin receptor (hTfR) and peptide by surface plasmon resonance (SPR). It is filed as binding. Particulars: SPR; linker and payload (FITC, VivoTag) conjugates; read-out: KD. The protocol: For each of the various synthesized peptides, the intermolecular interaction of the peptide with the transferrin receptor (hTfR) was tested by surface plasmon resonance (SPR) according to the following method. The specific test method is as follows.
An NTA sensor chip (Global Life Sciences Technologies Japan) was inserted in a Biacore T200 (Global Life Sciences Technologies Japan) and a prime operation was performed 3 times with a running buffer: 10 mM HEPES pH 8.0 (Nacalai Tesque), 150 mM NaCl (Nacalai Tesque), 0.05% Tween 20 (Nacalai Tesque), 0.1% BSA (Sigma-Aldrich), 1.0% DMSO (FUJIFILM Wako Pure Chemical) to create an Equilibration state at a flow rate of 30 µL/min. After reacting with 350 mM EDTA solution for 60 seconds at a flow rate of 10 µL/min then reacting with 0.5 mM NiCl2 solution (Kishida Chemical) for 60 seconds at a flow rate of 10 µL/min, the NTA sensor chip was washed with 3 mM EDTA solution (Nacalai Tesque) for 60 seconds at a flow rate of 10 µL/min. After mixing 50 µL each of 60 mM EDC solution (Global Life Sciences Technologies Japan) and 650 mM NHS solution (Global Life Sciences Technologies Japan), the mixture was reacted for 420 seconds at a flow rate of 10 µL/min. By diluting with the running buffer, 150 µL of 3.2 µM hTfR solution was prepared and used for reaction for 600 seconds at a flow rate of 10 µL/min, thereby immobilizing hTfR on the NTA sensor chip. After immobilization, capping was performed by reacting with 1.0 M ethanolamine aqueous solution (Global Life Sciences Technologies Japan) for 420 seconds at a flow rate of 10 µL/min. A peptide dissolution liquid prepared to 10 mM in the DMSO solution was diluted with the running buffer to a final concentration of 10 µM so as to become the peptide dissolution liquid, then peptide solutions of 100 nM, 50 nM, 25 nM, 10 nM and 5 nM were prepared. Kinetics of the peptide to hTfR was acquired by SPR measurement using the above-mentioned samples. Single-cycle kinetics was used as a kinetic evaluation model and curve fitting was performed using Biacore T200 Evaluation Software Version 3.0 (Global Life Sciences Technologies Japan). An obtained sensorgram was subjected to curve fitting using the least-squares method, and the binding of the peptide to hTfR was evaluated by obtaining KD values. […] A chemical structure of hTfR No. 894 is as follows.
The variant peptides were synthesized according to Example 1 unless otherwise stated in Example 9 or 10. The linker-added peptides were synthesized according to Example 1, except that Fmoc-NH-SAL-PEG resin (Watanabe Chemical Industries) was used as a resin for the peptide synthesis when the linker was PEG. The peptide, to which a peptide, a fatty acid, PEG, or a conjugate thereof is added as a linker, was also synthesized according to Example 1, unless otherwise stated in Example 9 or 10.
Background: SPR reads the build-up and loss of mass on a sensor chip optically.
As for `CC[C@H](C)[C@@H]1NC(=O)[C@H](Cc2ccc(O)cc2)NC(=O)[C@H](Cc2ccc(O)cc2)NC(=O)[C@H](CC(N)=O)NC(=O)[C@H](Cc2c[nH]c3ccccc23)NC(=O)[C@H](C(C)C)NC(=O)[C@H](Cc2ccccc2)NC(=O)[C@H](C(C)C)NC(=O)[C@H](C)NC(=O)CSC[C@@H](C(=O)NCCOCCOCCOCCOCCOCCOCCOCCOCCOCCOCCOCCOCCC(=O)N[C@@H](CCCCNC(=O)c2ccc(-c3c4ccc(=O)cc-4oc4cc(O)ccc34)c(C(=O)O)c2)C(N)=O)NC(=O)[C@H](Cc2ccc(O)cc2)N(C)C(=O)[C@H](Cc2ccc(O)cc2)NC(=O)[C@H](CCCNC(=N)N)NC(=O)[C@H](CCCNC(=N)N)NC(=O)[C@H]([C@@H](C)CC)NC1=O` [compound 147], the Kd was < 1 nM.

Turning to `CC[C@H](C)[C@@H]1NC(=O)[C@H](Cc2ccc(O)cc2)NC(=O)[C@H](Cc2ccc(O)cc2)NC(=O)[C@H](CC(N)=O)NC(=O)[C@H](Cc2c[nH]c3ccccc23)NC(=O)[C@H](C(C)C)NC(=O)[C@H](Cc2ccccc2)NC(=O)[C@H](C(C)C)NC(=O)[C@H](C)NC(=O)CSC[C@@H](C(=O)NCCOCCOCCOCCOCCOCCOCCOCCOCCOCCOCCOCCOCCC(=O)N[C@@H](CCCCNC(=O)c2ccc(-c3c4ccc(=O)cc-4oc4cc(O)ccc34)c(C(=O)O)c2)C(N)=O)NC(=O)[C@H](CCCNC(=N)N)NC(=O)[C@H](Cc2ccccc2)NC(=O)[C@H](CCCNC(=N)N)NC(=O)[C@H](CC(=O)O)NC(=O)[C@H]([C@@H](C)CC)NC1=O` [compound 148] ({CH2CO}-AVFVWNYYIIDRFRC[PEG12]K(X2)-NH2; thioether N-15), the Kd fell in the range of 1 to 100 nM.

With `CC[C@H](C)[C@@H]1NC(=O)[C@H](Cc2ccc(O)cc2)NC(=O)[C@H](Cc2ccc(O)cc2)NC(=O)[C@H](CC(N)=O)NC(=O)[C@H](Cc2c[nH]c3ccccc23)NC(=O)[C@H](C(C)C)NC(=O)[C@H](Cc2ccccc2)NC(=O)[C@H](C(C)C)NC(=O)[C@H](C)NC(=O)CSC[C@@H](C(=O)NCCOCCOCCOCCOCCOCCOCCOCCOCCOCCOCCOCCOCCC(=O)N[C@@H](CCCCNC(=O)c2ccc(-c3c4ccc(=O)cc-4oc4cc(O)ccc34)c(C(=O)O)c2)C(N)=O)NC(=O)[C@H](Cc2c[nH]cn2)N(C)C(=O)[C@H](CO)NC(=O)[C@H](CCCNC(=N)N)NC(=O)[C@H](Cc2ccccc2)NC(=O)[C@H](CCCNC(=N)N)NC(=O)[C@H](CC(=O)O)NC(=O)[C@H]([C@@H](C)CC)NC1=O` [compound 149] ({CH2CO}-AVFVWNYYIIDRFRS[NMeH]C[PEG12]K(X2)-NH2; thioether N-17), the Kd was 1 to 100 nM. As for `CC[C@H](C)[C@@H]1NC(=O)[C@H](Cc2ccc(O)cc2)NC(=O)[C@H](Cc2ccc(O)cc2)NC(=O)[C@H](CC(N)=O)NC(=O)[C@H](Cc2c[nH]c3ccccc23)NC(=O)[C@H](C(C)C)NC(=O)[C@H](Cc2ccccc2)NC(=O)[C@H](C(C)C)NC(=O)[C@H](C)NC(=O)CSC[C@@H](C(=O)NCCOCCOCCOCCOCCOCCOCCOCCOCCOCCOCCOCCOCCC(=O)N[C@@H](CCCCNC(=O)c2ccc(-c3c4ccc(=O)cc-4oc4cc(O)ccc34)c(C(=O)O)c2)C(N)=O)NC(=O)[C@H](Cc2ccc(O)cc2)N(C)C(=O)[C@H](CO)NC(=O)[C@H](CCCNC(=N)N)NC(=O)[C@H](Cc2ccccc2)NC(=O)[C@H](CCCNC(=N)N)NC(=O)[C@H](CC(=O)O)NC(=O)[C@H]([C@@H](C)CC)NC1=O` [compound 150] ({CH2CO}-AVFVWNYYIIDRFRS[NMeY]C[PEG12]K(X2)-NH2; thioether N-17), the Kd was 1 to 100 nM. The result for `CC[C@H](C)[C@@H]1NC(=O)[C@H](Cc2ccc(O)cc2)NC(=O)[C@H](Cc2ccc(O)cc2)NC(=O)[C@H](CC(N)=O)NC(=O)[C@H](Cc2c[nH]c3ccccc23)NC(=O)[C@H](C(C)C)NC(=O)[C@H](Cc2ccccc2)NC(=O)[C@H](C(C)C)NC(=O)[C@H](C)NC(=O)CSC[C@@H](C(=O)NCCOCCOCCOCCOCCOCCOCCOCCOCCOCCOCCOCCOCCC(=O)N[C@@H](CCCCNC(=O)c2ccc(-c3c4ccc(=O)cc-4oc4cc(O)ccc34)c(C(=O)O)c2)C(N)=O)NC(=O)[C@H](CC(N)=O)NC(=O)[C@@H]2CCCN2C(=O)[C@H](C(C)C)NC(=O)[C@H](CC(N)=O)NC(=O)[C@H](CCCNC(=N)N)NC(=O)CNC(=O)[C@H](C(C)C)NC1=O` [compound 152] ({CH2CO}-AVFVWNYYIVGRNVPNC[PEG12]K(X2)-NH2; thioether N-17) reads < 1 nM; that for `CC[C@H](C)[C@@H]1NC(=O)[C@H](CCCNC(=N)N)NC(=O)[C@H](CC(N)=O)NC(=O)[C@H](C)NC(=O)CSC[C@@H](C(=O)NCCOCCOCCOCCOCCOCCOCCOCCOCCOCCOCCOCCOCCC(=O)N[C@@H](CCCCNC(=O)c2ccc(-c3c4ccc(=O)cc-4oc4cc(O)ccc34)c(C(=O)O)c2)C(N)=O)NC(=O)[C@H](Cc2ccc(O)cc2)N(C)C(=O)[C@H](CCCNC(=N)N)NC(=O)[C@@H]2CCCN2C(=O)[C@H]([C@@H](C)CC)NC(=O)[C@H]([C@@H](C)CC)NC(=O)[C@H](Cc2ccc(O)cc2)NC(=O)[C@H](Cc2ccc(O)cc2)NC(=O)[C@H](CC(N)=O)NC(=O)[C@H](Cc2c[nH]c3ccccc23)NC(=O)[C@H](C(C)C)NC(=O)[C@H](Cc2ccccc2)NC(=O)[C@H](C(C)C)NC1=O` [compound 153] ({CH2CO}-ANRIVFVWNYYIIPR[NMeY]C[PEG12]K(X2)-NH2; thioether N-17), 1 to 100 nM; that for `CC[C@H](C)[C@@H]1NC(=O)[C@H](CCCNC(=N)N)NC(=O)[C@H](CC(N)=O)NC(=O)[C@H](C)NC(=O)CSC[C@@H](C(=O)NCCOCCOCCOCCOCCOCCOCCOCCOCCOCCOCCOCCOCCC(=O)N[C@@H](CCCCNC(=O)c2ccc(-c3c4ccc(=O)cc-4oc4cc(O)ccc34)c(C(=O)O)c2)C(N)=O)NC(=O)[C@H](Cc2c[nH]cn2)N(C)C(=O)[C@H](CCCNC(=N)N)NC(=O)[C@@H]2CCCN2C(=O)[C@H]([C@@H](C)CC)NC(=O)[C@H]([C@@H](C)CC)NC(=O)[C@H](Cc2ccc(O)cc2)NC(=O)[C@H](Cc2ccc(O)cc2)NC(=O)[C@H](CC(N)=O)NC(=O)[C@H](Cc2c[nH]c3ccccc23)NC(=O)[C@H](C(C)C)NC(=O)[C@H](Cc2ccccc2)NC(=O)[C@H](C(C)C)NC1=O` [compound 154] ({CH2CO}-ANRIVFVWNYYIIPR[NMeH]C[PEG12]K(X2)-NH2; thioether N-17), 1 to 100 nM. The value for `CC[C@H](C)[C@@H]1NC(=O)[C@H](Cc2ccc(O)cc2)NC(=O)[C@H](Cc2ccc(O)cc2)NC(=O)[C@H](CC(N)=O)NC(=O)[C@H](Cc2c[nH]c3ccccc23)NC(=O)[C@H](C(C)C)NC(=O)[C@H](Cc2ccccc2)NC(=O)[C@H](C(C)C)NC(=O)[C@H](C)NC(=O)[C@H](CO)NC(=O)[C@H](C)NC(=O)CSC[C@@H](C(=O)NCCOCCOCCOCCOCCOCCOCCOCCOCCOCCOCCOCCOCCC(=O)N[C@@H](CCCCNC(=O)c2ccc(-c3c4ccc(=O)cc-4oc4cc(O)ccc34)c(C(=O)O)c2)C(N)=O)NC(=O)[C@H](C)NC(=O)[C@H](Cc2c[nH]c3ccccc23)NC(=O)[C@H](CCCNC(=N)N)NC(=O)[C@H](CC(N)=O)NC(=O)[C@H]([C@@H](C)CC)NC1=O` [compound 155] ({CH2CO}-ASAVFVWNYYIINRWAC[PEG12]K(X2)-NH2; thioether N-17) was 1 to 100 nM; that for `CC[C@H](C)[C@@H]1NC(=O)[C@H](Cc2ccc(O)cc2)NC(=O)[C@H](Cc2ccc(O)cc2)NC(=O)[C@H](CC(N)=O)NC(=O)[C@H](Cc2c[nH]c3ccccc23)NC(=O)[C@H](C(C)C)NC(=O)[C@H](Cc2c[nH]c3ccccc23)NC(=O)[C@H](C(C)C)NC(=O)[C@H]([C@@H](C)O)NC(=O)[C@H](CCCNC(=N)N)NC(=O)[C@H](CO)NC(=O)[C@H](CC(N)=O)NC(=O)[C@H](C)NC(=O)CSC[C@@H](C(=O)NCCOCCOCCOCCOCCOCCOCCOCCOCCOCCOCCOCCOCCC(=O)N[C@@H](CCCCNC(=O)c2ccc(-c3c4ccc(=O)cc-4oc4cc(O)ccc34)c(C(=O)O)c2)C(N)=O)NC(=O)[C@H](CCCNC(=N)N)NC(=O)[C@H]([C@@H](C)O)NC(=O)[C@H](C(C)C)NC1=O` [compound 157] ({CH2CO}-ANSRTVWVWNYYIVTRC[PEG12]K(X2)-NH2; thioether N-17) was 1 to 100 nM.

For the origin of these results see US20230203098A1, “HUMAN TRANSFERRIN RECEPTOR BINDING PEPTIDE” (priority 2020, published 2023).
